We go through 9 molecules from patent US10071998B2, “Iminothiadiazine dioxides bearing an amine-linked substituent as BACE inhibitors, compositions, and their use” (Merck Sharp & Dohme Corp., priority 2015, dated 2018).

Assay [1] deals with Recombinant human soluble BACE-1 catalytic domain (Homo sapiens (Human), UniProt P56817). In words: BACE-1 Ki Assay (BACE-1 HTRF FRET Assay). Format: biochemical. As to the method:
Assay 1: BACE-1 Ki Assay (BACE-1 HTRF FRET Assay)
The compounds of the invention were assessed for their ability to inhibit BACE-1 using the following assay.
The following reagents were used in this assay. Na^+-Acetate pH 5.0; 1% Brij-35; Glycerol; Dimethyl Sulfoxide (DMSO); Recombinant human soluble BACE-1 catalytic domain (>95% pure); APP Swedish mutant peptide substrate (QSY7-APP^swe-Eu): QSY7-EISEVNLDAEFC-Europium-amide.
A homogeneous time-resolved FRET assay can be used to determine IC50 values for inhibitors of the soluble human BACE-1 catalytic domain. This assay monitors the increase of 620 nm fluorescence that resulted from BACE-1 cleavage of an APPswedish APP^swe mutant peptide FRET substrate (QSY7-EISEVNLDAEFC-Europium-amide). This substrate contains an N-terminal QSY7 moiety that serves as a quencher of the C-terminal Europium fluorophore (620 nm Em). In the absence of enzyme activity, 620 nm fluorescence is low in the assay and increased linearly over 3 hours in the presence of uninhibited BACE-1 enzyme. Inhibition of BACE-1 cleavage of the QSY7-APP^swe-Eu substrate by inhibitors is manifested as a suppression of 620 nm fluorescence.
Varying concentrations of inhibitors at 3× the final desired concentration in a volume of 10 ul are preincubated with purified human BACE-1 catalytic domain (3 nM in 10 μl) for 30 minutes at 30° C. in reaction buffer containing 20 mM Na-Acetate pH 5.0, 10% glycerol, 0.1% Brij-35 and 7.5% DSMO. Reactions are initiated by addition of 10 μl of 600 nM QSY7-APP^swe-Eu substrate (200 nM final) to give a final reaction volume of 30 μl in a 384 well Nunc HTRF plate. The reactions are incubated at 30° C. for 1.5 hours. The 620 nm fluorescence is then read on a Rubystar HTRF plate reader (BMG Labtechnologies) using a […] delay followed by a 400 millisecond acquisition time window. Inhibitor IC50 values are derived from non-linear regression analysis of concentration response curves. Ki values are then calculated from IC50 values using the Cheng-Prusoff equation using a previously determined […] of 8 μM for the QSY7-APP^swe-Eu substrate at BACE-1. The example compounds of the invention were measured in this assay.

In assay [2] the target is purified human autoBACE-2 (Homo sapiens (Human), UniProt Q9Y5Z0). Description: BACE-2 Assay (BACE-HTRF assay). The following applies: Table 1; Ki calculated from IC50 with Cheng-Prusoff equation; read-out: BACE2 Ki. Format: biochemical. As to the method: Inhibitor IC50s, at purified human autoBACE-2 are determined in a time-resolved endpoint proteolysis assay that measures hydrolysis of the QSY7-EISEVNLDAEFC-Eu-amide FRET peptide substrate (BACE-HTRF assay). BACE-mediated hydrolysis of this peptide results in an increase in relative fluorescence (RFU) at 620 nm after excitation with 320 nm light. Inhibitor compounds, prepared at 3× the desired final concentration in 1× BACE assay buffer (20 mM sodium acetate pH 5.0, 10% glycerol, 0.1% Brij-35) supplemented with 7.5% DMSO are pre-incubated with an equal volume of autoBACE-2 enzyme diluted in 1×BACE assay buffer (final enzyme concentration 1 nM) in black 384-well NUNC plates for 30 minutes at 30° C. The assay is initiated by addition of an equal volume of the QSY7-EISEVNLDAEFC-Eu-amide substrate (200 nM final concentration, Km=8 μM […] for autoBACE-2) prepared in 1×BACE assay buffer supplemented with 7.5% DMSO and incubated for 90 minutes at 30° C. DMSO is present at 5% final concentration in the assay. Following laser excitation of sample wells at 320 nm, the fluorescence signal at 620 nm is collected for 400 ms following a 50 μs delay on a RUBYstar HTRF plate reader (BMG Labtechnologies). Raw RFU data is normalized to maximum (1.0 nM BACE/DMSO) and minimum (no enzyme/DMSO) RFU values. IC50 values are determined by nonlinear regression analysis (sigmoidal dose response, variable slope) of percent inhibition data with minimum and maximum values set to 0 and 100 percent respectively. Similar IC50s are obtained when using raw RFU data. The Ki values are calculated from the IC50 using the Cheng-Prusoff equation.
purified human autoBACE-2, sequence (Q9Y5Z0 63-473): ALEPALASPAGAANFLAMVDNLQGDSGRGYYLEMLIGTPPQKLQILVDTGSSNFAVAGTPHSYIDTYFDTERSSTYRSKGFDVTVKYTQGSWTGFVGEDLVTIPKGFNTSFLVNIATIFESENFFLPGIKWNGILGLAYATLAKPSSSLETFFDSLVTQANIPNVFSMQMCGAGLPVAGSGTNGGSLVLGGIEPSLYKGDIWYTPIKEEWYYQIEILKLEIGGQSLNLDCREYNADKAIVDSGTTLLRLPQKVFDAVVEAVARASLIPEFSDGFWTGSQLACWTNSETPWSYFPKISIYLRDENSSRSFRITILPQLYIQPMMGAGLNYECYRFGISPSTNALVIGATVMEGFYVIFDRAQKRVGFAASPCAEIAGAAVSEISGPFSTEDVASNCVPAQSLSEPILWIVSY

Assay [3] deals with CSF levels of Aβ1-40 (Aβ40). Description: Aβ Reduction In Vivo (rat CSF Aβ40). The following applies: 3 h, 10 mg/kg oral gavage. As to the method: Assay 3: Aβ Reduction In Vivo
The in vivo efficacy and/or potency of BACE inhibitors (test compounds) can be evaluated using a variety of animal models, including mouse, rat, dog, and monkey, and these animals can be wild type, transgenic, or gene knockout animals.
Generally, animals are administered (by oral gavage, intravenous injection, or by other suitable route) a test compound in doses ranging from, for example, 0.1 mg/kg (mg of compound per kg of animal body weight) to 100 mg/kg formulated in vehicles, such as cyclodextrin, phosphate buffer, hydroxypropyl methylcellulose or other suitable vehicles. One to twenty-four hours following the administration of compound, animals are sacrificed, and tissues (for example, brain, cerebrospinal fluid (CSF), and/or plasma) are collected for analysis of Aβ levels and/or test compound concentrations (Dovey et al., 2001, Journal of Neurochemistry, 76, 173-181). Tissue samples are processed appropriately and then analyzed for the presence of Aβ by specific sandwich ELISA assays based on electrochemiluminescence (ECL) technology.
For example, in the following assay for which data are reported below, male CD IGS rats (body weight approximately 120 g, Charles River Laboratories, Kingston, N.Y.) were used to asses lowering of CSF levels of Aβ1-40 (Aβ40) in the presence of compounds of the invention. At time 0, animals were administered by oral gavage a test compound at a dose of 10 mg/kg in 20% hydroxypropyl-β-cyclodextrin (dosing volume 5 mL/kg). A separate group of animals received 20% hydroxypropyl-β-cyclodextrin alone to serve as the vehicle control group. Three hours after administration, the rats were euthanized with excess CO2. Immediately following euthanasia, CSF was collected from the cisterna magna and quickly frozen on dry ice. Samples were stored at −80° C. until quantification of Aβ40 levels.
The measurement of endogenous rat Aβ40 in CSF relied on the 585 antibody (Ab585, BioSource, NONO585), which specifically recognizes the N-terminal sequence of rodent Aβ40, and on the monoclonal antibody, G2-10, which specifically recognizes the free C-terminus of Aβ40. Ab585 was labeled with biotin (b-Ab585) by first dialyzing the antibody sample extensively versus PBS (pH 7.8) to remove impurities, followed by dilution to between 1 and 2 mg/mL protein concentration. EZ-Link Sulfo-NHS-LC-Biotin (Pierce) was dissolved in PBS (pH 7.8) at a concentration of 1 mg/mL immediately prior to use. Ab585 was labeled with EZ-Link Sulfo-NHS-LC-biotin using a 10:1 biotin:antibody ratio by incubation at room temperature for 1 hour. The labeling reaction was quenched by addition of 1.0 M glycine to a final concentration of 0.1 M followed by 10 minute incubation at room temperature. Glycine was removed by extensive dialysis versus PBS.
For rat CSF Aβ40 determinations, a calibration curve of various concentrations of synthetic rodent Aβ40 was assayed in parallel with rat CSF samples in duplicate using an avidin-coated 96-well MSD plate (Mesoscale Diagnostics). Either 50 μL of rodent Aβ40 standards diluted in PBS (pH 7.4) supplemented with 1% BSA and 1% Tween-20 (standard diluent buffer) or 40 μL of standard diluent buffer plus 10 μL rat CSF were added to each 96 well avidin-coated plate. To each well was added 50 μL of 0.1 M HEPES (pH 7.5), 2% BSA, 2% Tween-20, 0.3 M NaCl (2× Aβ40 buffer) supplemented with the b-Ab585 capture and ruthenylated-G2-10 detection antibodies diluted to 1 μg/mL and 0.5 μg/mL, respectively. Plates were shaken for 1 min on a microplate shaker, covered to protect from light and incubated overnight (˜16 h) at 4° C. For detection, plates were first washed twice with 100 μL of 1×CSF Aβ40 buffer followed by addition of 160 μL of 1×MSD read buffer-T (Mesoscale Diagnostics) diluted in 1×CSF Aβ40 buffer. Plates were read on a MSD Sector Imager 2400 model (Mesoscale Diagnosotics). […]

[4] abbreviates: Table 1, Ki calculated from IC50 with Cheng-Prusoff equation, read-out: BACE1 Ki.
The mark [5] stands for this setting: Table 2, male CD IGS rats, CSF three hours after administration, percent change vs vehicle cohort.

Read-outs that look alike come from different tables or passages of the source.

By Ki is commonly meant the equilibrium dissociation constant of an inhibitor or competing ligand from its target.

Recombinant human soluble BACE-1 catalytic domain, sequence (P56817 75-416): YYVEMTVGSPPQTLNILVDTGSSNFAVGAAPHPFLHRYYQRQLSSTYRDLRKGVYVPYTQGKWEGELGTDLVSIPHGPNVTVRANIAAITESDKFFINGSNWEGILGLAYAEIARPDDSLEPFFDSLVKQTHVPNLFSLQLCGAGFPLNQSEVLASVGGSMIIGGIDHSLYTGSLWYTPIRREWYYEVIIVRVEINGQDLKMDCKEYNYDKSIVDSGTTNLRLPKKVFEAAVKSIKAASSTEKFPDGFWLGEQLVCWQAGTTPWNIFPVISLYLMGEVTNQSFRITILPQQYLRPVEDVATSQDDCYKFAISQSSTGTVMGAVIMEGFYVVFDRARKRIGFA

As for `CN1C(=N)N[C@](C)(c2cc(Nc3nccc4nc(C(F)F)cnc34)ccc2F)CS1(=O)=O` [Example 12, 2-(difluoromethyl)-N-{4-fluoro-3-[(5R)-3-imino-2,5-dimethyl-1,1-dioxido-1,2,4-thiadiazinan-5-yl]phenyl}pyrido[3,4-b]pyrazin-5-amine], the Ki is 5.2 nM in assay [1] (setting [4]); 5.2 nM in assay [1] (Table 2, read-out: BACE1 Ki); 1.8 nM in assay [2]. The change in vivo at 10 mg/kg in assay [3] (setting [5]) was -44%.

In the case of `CN1C(=N)N[C@](C)(c2cc(Nc3nccc4cc(F)cnc34)ccc2F)CS1(=O)=O` [Example 8, 3-fluoro-N-{4-fluoro-3-[(5R)-3-imino-2,5-dimethyl-1,1-dioxido-1,2,4-thiadiazinan-5-yl]phenyl}-1,7-naphthyridin-8-amine], the inhibition constant Ki in assay [1] (setting [4]) was 2.1 nM; in assay [1] (Table 2, read-out: BACE1 Ki), 2.1 nM; in assay [2] it was 0.24 nM. The change in vivo at 10 mg/kg in assay [3] (setting [5]) is -21%.

For the molecule `COc1cnc2c(Nc3ccc(F)c([C@]4(C)CS(=O)(=O)N(C)C(=N)N4)c3)ncnc2c1` [Example 14, N-{4-fluoro-3-[(5R)-3-imino-2,5-dimethyl-1,1-dioxido-1,2,4-thiadiazinan-5-yl]phenyl}-7-methoxypyrido[3,2-d]pyrimidin-4-amine], the Ki in assay [1] (setting [4]) is 4.3 nM; in assay [1] (Table 2, read-out: BACE1 Ki), 4.3 nM; in assay [2], 4.4 nM. For the same molecule, in assay [3] (setting [5]), the change in vivo at 10 mg/kg is -55%.

`COc1cnc2c(Nc3ccc(F)c([C@]4(C)CS(=O)(=O)N(C)C(=N)N4)c3)nccc2c1` [Example 4, N-{4-fluoro-3-[(5R)-3-imino-2,5-dimethyl-1,1-dioxido-1,2,4-thiadiazinan-5-yl]phenyl}-3-methoxy-1,7-naphthyridin-8-amine]: the Ki in assay [1] (setting [4]) is 11.7 nM; in assay [1] (Table 2, read-out: BACE1 Ki), 12 nM; in assay [2] it was 5.8 nM. Moreover, the change in vivo at 10 mg/kg in assay [3] (setting [5]) is -45%.

Turning to `CN1C(=N)N[C@](C)(c2c(F)ccc(Nc3nccc4cc(C#N)cnc34)c2F)CS1(=O)=O` [Example 11, 8-({2,4-difluoro-3-[(5R)-3-imino-2,5-dimethyl-1,1-dioxido-1,2,4-thiadiazinan-5-yl]phenyl}amino)-1,7-naphthyridine-3-carbonitrile], the Ki in assay [1] (setting [4]) was 2.1 nM; in assay [1] (Table 2, read-out: BACE1 Ki), 2.1 nM; in assay [2] it was 1.1 nM. In assay [3] (setting [5]), the change in vivo at 10 mg/kg was -50%.

On to `CN1C(=N)N[C@](C)(c2cc(Nc3ncnc4cc(C#N)cnc34)ccc2F)CS1(=O)=O` [Example 7, 4-({4-fluoro-3-[(5R)-3-imino-2,5-dimethyl-1,1-dioxido-1,2,4-thiadiazinan-5-yl]phenyl}amino)pyrido[3,2-d]pyrimidine-7-carbonitrile], for which the Ki was 3.2 nM in assay [1] (setting [4]); 3.2 nM in assay [1] (Table 2, read-out: BACE1 Ki); 3 nM in assay [2]. In assay [3] (setting [5]), the change in vivo at 10 mg/kg was -21%.

Regarding `CN1C(=N)N[C@](C)(c2cc(Nc3nccc4cc(C#N)cnc34)ccc2F)CS1(=O)=O` [Example 6, 8-({4-fluoro-3-[(5R)-3-imino-2,5-dimethyl-1,1-dioxido-1,2,4-thiadiazinan-5-yl]phenyl}amino)-1,7-naphthyridine-3-carbonitrile], the Ki in assay [1] (setting [4]) was 1.31 nM; in assay [1] (Table 2, read-out: BACE1 Ki), 1.3 nM; in assay [2], 0.46 nM. For the same molecule, the change in vivo at 10 mg/kg in assay [3] (setting [5]) is -50%.

For `COc1cnc2c(Nc3ccc(F)c([C@]4(C)CS(=O)(=O)N(C)C(=N)N4)c3)nccc2n1` [Example 9, N-{4-fluoro-3-[(5R)-3-imino-2,5-dimethyl-1,1-dioxido-1,2,4-thiadiazinan-5-yl]phenyl}-2-methoxypyrido[3,4-b]pyrazin-5-amine], the Ki in assay [1] (setting [4]) is 2.6 nM; in assay [1] (Table 2, read-out: BACE1 Ki), 2.6 nM; in assay [2] it was 3.5 nM. Moreover, the change in vivo at 10 mg/kg in assay [3] (setting [5]) is -68%.

For `COc1cccnc1Nc1ccnc([C@]2(C)CS(=O)(=O)N(C)C(=N)N2)c1` [165 (Table XXI), reference compound], in assay [1] (Table 3, comparator compounds of WO2011044181, read-out: BACE-1 Ki Nm), the Ki is 48 nM. For the same molecule, the change in vivo at 10 mg/kg in assay [3] (Table 3, comparator compounds of WO2011044181, rats, CSF at three hours, percent change vs vehicle) was -11%.
